# In patent publication US20220017833A1, “Methods and Compositions for Scavenging Sulfides from Hydrocarbon Fluids and Aqueous Streams” (Nexgen Oilfield Chemicals, LLC, priority 2019, published 2022):
# Legend:
# [1] = Short Reaction Time Capacity Test; settings: 20 g test; for Min to BT / Min to FD: 3.00 g BuOH, GIDA 6.68 g as GID, 3.32 g water
# Excerpt: Referring now to FIG. 1, therein is schematically depicted a sulfide scavenger testing system 100 comprising a gas source 2, a flow regulator 4, gas treatment vessel 6, and a sulfide measurement device 8. In one testing embodiment, gas (not shown) is flowed from gas source 2 via gas feed piping 10 into flow regulator 4, which regulates gas flow to gas treatment vessel 6 via regulated gas feed piping 12. The regulated gas flows into gas treatment vessel 6 via a bottom inlet 14 thereof, where it comes into contact with a volume of liquid 16 comprising a sulfide scavenger system (not separately labeled). The gas, having been treated by the liquid, flows out of a top end 18 of gas treatment vessel 6 and flows into sulfide measurement device 8 via treated gas outlet piping 20.
# In one embodiment, gas flow from the flow regulator 4 is controlled such that the gas is flowed into the gas treatment vessel 6 at a flow rate of 100 mL/min. up to 500 mL/min. In one embodiment, a gas sparging device, such as a fine pore frit (not shown), is utilized to better distribute the gas into the scavenger liquid. In one embodiment, the gas treatment vessel 6 contains about 20 g of a liquid H2S scavenger, such as one or more diaminols/diaminacetals in a chemical system as described above. In one aspect, to the extent possible, H2S and/or CO2 are scavenged from the gas by the scavenger and the treated (“sweet”) gas exits top end 18 of treatment vessel 6. In one embodiment, sulfide measurement device 8 monitors the concentration of H2S leaving treatment vessel 6. in the gas phase. In other embodiments (not shown), a CO2 measurement device may be similarly employed to monitor the concentration of CO2 leaving treatment vessel 6 in the gas phase.
# In one embodiment, gas is flowed through sulfide scavenger testing system 100 until the outlet H2S concentration reaches a 4,000 ppm target, at which point the test is concluded. This relative time duration before the target is reached is used to compare H2S scavenger capacity given the kinetics of each sulfide scavenger system. The longer the duration, the better the capacity.
# The fine bubbles produced rise slowly, providing plenty of time, plenty of surface area, and a short path through which the H2S must diffuse to the scavenger in the liquid 16. Detector 8 on the outlet line 20 is used to measure H2S concentration in the exiting gas. The times to first detection (FD), at a threshold of 15 ppm, and to complete breakthrough (BT), at the detector saturation of 4000 ppm (0.4%), are recorded. This test is designed to measure the effective scavenging capacity in applications with long contact times.
# This test is the same as the Long Reaction Time Capacity Test, but without the gas sparging device, so as to produce larger bubbles, and at a higher feed rate of 200 mL/min, after the first 8 minutes at 100 mL/min. The larger bubbles rise quickly through the liquid 16, providing little time, little surface area, and a long path through which the H2S must diffuse to the scavenger in the liquid. This test is designed to measure the effective scavenging capacity in applications with short contact times. It is far more reaction rate dependent than the Long Reaction Time Capacity and so is a more critical and differentiating test.
# With triazine, one H2S reacts twice with the same molecule of triazine, replacing one amine, so the rate is “first order”, meaning proportional to the concentration of triazine.
# Hot Spray Fouling Test = assay type: physicochemical; settings: Table 5; glyoxy alkyl diaminol in water and MeOH only
# Excerpt: In many gas applications, the scavenger must by sprayed into a hot gas stream. This can create insoluble materials (“solids”) as the scavenger system evaporates and/or decomposes. These solids accumulate and foul (interfere with the function) of the vessel, line, or equipment to which the scavenger is being fed. This precludes the scavenger being used in that application. Referring now to FIG. 2, a spray test system 200 is utilized to for the Hot Spray Fouling Test. In one embodiment, an injection atomizer apparatus 22 is employed, wherein the scavenger formulation (not separately labeled) is sprayed onto a sheet 26 through an atomizing nozzle 24, like that used to introduce the scavenger into a gas line, tank, or vessel. The material is first placed in a double boiler (not shown) and brought to 180° F. The heated liquid is then placed in the injection atomizer apparatus 22 and sprayed horizontally onto an aluminum sheet 26 twelve inches away. The chemical drains gravitationally down the sheet where it is funneled into a beaker 28 for collection. If solids are observed on the sheet 26 or in the draining or collected fluid, the sample fails. If no solids are observed, it passes the test.
# [2] = Spent Water Flowability Test; assay type: physicochemical; design: key: Pass: A homogeneous, single-phase solution or thin layer of readily flowable non-sticking liquid constitutes a pass.; Fail: Any solids or thick, sticky insoluble liquid is a fail.; PASS: A homogeneous, single-phase solution or thin layer of readily flowable non-sticking liquid constitutes a pass.; FAIL: Any solids or thick, sticky insoluble liquid is a fail; settings: Table 5; glyoxy alkyl diaminol in water and MeOH only
# Experimental: In field applications, spent scavenger is disposed of through a wastewater system. Spent scavenger might be soluble in the scavenger system but insoluble in wastewater. If it cannot be disposed of, it is not suitable for use. To ensure wastewater processing runs trouble free, spent scavenger passing the Spent Solids Fouling Test is then added to 39 times its weight in water (2.5%) and examined again for insoluble solids and viscous, sticky liquids that might foul the wastewater system. Any solids or thick, sticky insoluble liquid is a fail. A homogeneous, single-phase solution or thin layer of readily flowable non-sticking liquid constitutes a pass.
# [3] = Eq/test GIDAc 0.114, GIDA 0.076 (8.00 g MeOH, 2.00 g BuOH)
# [4] = Eq/test Triazine 0.068, GIDAc 0.157, GIDA 0.076 (7.50 g MeOH, 2.50 g BuOH)
# [5] = GIDAc 8.00 g as GID, 9.00 g MeOH, 8.00 g MeOH, 2.00 g BuOH
# [6] = Triazine 7.50 g + 12.50 g water, GIDAc 11.00 g as GID, 6.00 g MeOH, 7.50 g MeOH, 2.50 g BuOH
smiles,measurement,setting,value
"CC(C)NC(O)C(O)NC(C)C (stereo not shown) [GIDA, 1,2-bis[(propan-2-yl)amino]ethane-1,2-diol]",Min/Eq BT,[1]; [3],607 Min/Eq
same,Min/Eq FD,[1]; [3],515 Min/Eq
same,Min/Eq BT,[1]; [4],541 Min/Eq
same,Min/Eq FD,[1]; [4],462 Min/Eq
same,Min to BT,[1]; [5],46 min
same,Min to FD,[1]; [5],39 min
same,Min to BT,[1]; [6],41 min
same,Min to FD,[1]; [6],35 min
same,Hot Spray Fouling,Hot Spray Fouling Test,Fail
same,Spent Water Flowability,[2],Fail
